Measurements as given in patent US20260184708A1, “PYRIDAZINONES AND METHODS OF USE THEREOF” (GFB (ABC), LLC, priority 2017, published 2026).

Biological target: T1, TRPC5 (Homo sapiens, UniProt Q9UL62)
T1 construct: expressed in transfected cells; host or cells: HEK 293
T1 sequence (Q9UL62 1-973): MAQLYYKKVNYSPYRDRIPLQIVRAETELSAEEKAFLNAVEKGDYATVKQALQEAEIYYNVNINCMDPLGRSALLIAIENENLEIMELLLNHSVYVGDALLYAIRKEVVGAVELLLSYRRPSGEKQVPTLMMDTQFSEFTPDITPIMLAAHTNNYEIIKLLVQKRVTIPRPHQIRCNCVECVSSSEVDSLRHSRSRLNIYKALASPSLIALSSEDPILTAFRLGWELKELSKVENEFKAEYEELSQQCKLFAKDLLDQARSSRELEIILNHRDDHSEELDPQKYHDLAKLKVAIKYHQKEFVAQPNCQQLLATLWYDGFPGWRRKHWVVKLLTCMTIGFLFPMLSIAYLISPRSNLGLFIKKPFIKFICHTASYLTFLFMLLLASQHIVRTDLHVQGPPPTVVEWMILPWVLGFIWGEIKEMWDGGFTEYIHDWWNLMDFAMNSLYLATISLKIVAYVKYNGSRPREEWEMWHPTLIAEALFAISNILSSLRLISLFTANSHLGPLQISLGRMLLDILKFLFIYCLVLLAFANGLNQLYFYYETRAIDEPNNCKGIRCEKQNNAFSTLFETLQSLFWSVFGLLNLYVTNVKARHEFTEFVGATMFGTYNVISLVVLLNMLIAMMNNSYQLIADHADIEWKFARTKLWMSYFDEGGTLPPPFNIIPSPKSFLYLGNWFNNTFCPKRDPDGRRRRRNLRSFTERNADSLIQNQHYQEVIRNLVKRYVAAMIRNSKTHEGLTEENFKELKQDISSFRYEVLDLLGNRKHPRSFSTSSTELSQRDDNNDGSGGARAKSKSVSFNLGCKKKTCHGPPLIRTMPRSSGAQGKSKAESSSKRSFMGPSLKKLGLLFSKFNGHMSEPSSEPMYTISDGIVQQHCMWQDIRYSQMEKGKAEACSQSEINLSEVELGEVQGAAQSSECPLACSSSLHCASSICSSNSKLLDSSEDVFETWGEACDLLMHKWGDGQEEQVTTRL
Test: TRPC5 Fluorescence Assay - FLIPR format (HEK-TREx hTRPC5, Riluzole stimulation)
Type: cell-based
Settings: Table 9, read-out: hTRPCS-FLIPR IC50
Description: • Cell line: ICLN-001633 • Base Cell: HEK • Channel: TRPC5 • Species: Human • Thaw ID: multiple • Passage: multiple
FLIPR Assay Buffer (Earls Balanced Salt Solution (EBSS) was prepared as follows:
Test Agent Preparation: Compounds were made up to, or supplied as, a 10 mM stock solution generally using DMSO as the vehicle. 10-point dose response curves were generated using the Echo-550 acoustic dispenser. Compound source plates were made by serially diluting compound stocks to create 10 mM, 1 mM, and 0.1 mM solutions in DMSO into Echo certified LDV plates. The Echo then serially spotted 100% DMSO stock solutions into source dose response plates to generate a 4-fold dilution scheme. 100% DMSO was added to the spotted dose response plates to bring the final volume to 5 μl. […] of the dose response stock plate was then spotted into pre-incubation and stimulation assay plates. 50 μl of pre-incubation buffer and 100 μl of stimulation buffer was then added to the plates resulting in a final assay test concentration range of 30 μM to 0.0001 μM with a final DMSO concentration of 0.3%.
Experimental Methods: Cells expressing TRPC5 (HEK-TREx hTRPC5) are plated onto 384 well, black PDL-coated microplates and maintained in TRPC5 growth media the day prior to use for experiments. TRPC5 expression is induced by the application of […] tetracycline at the time of plating. Media is removed from the plates and 10 μl of 4 μM of Fluo-4 AM (mixed with equal volume of Pluronic F-127) in EBSS is added to the cells. Cells are incubated at room temperature, protected from light, for 60-90 minutes. After the incubation period, the dye is removed and replaced with 10 μl of EBSS. Cell, pre-incubation and stimulation plates are loaded onto the FLIPR-II and the assay is initiated. The FLIPR measures a 10 second baseline and then adds 10 μl of 2× compounds (or controls). Changes in fluorescence are monitored for an additional 5 minutes. After the 5 minute pre-incubation, 20 μl of 2× Riluzole (with 1× compound or controls) is added to the cell plate. The final Riluzole stimulation concentration in the assay is 30 μM. After the Riluzole addition, changes in fluorescence are monitored for an additional 5 minutes.
Test Agent Effect: Test agent modulation of TRPC5 calcium response was determined as follows. After the Riluzole, fluorescence was monitored for a 5 minute period. The maximum relative fluorescene response (minus the control response of 1 μM of the control inhibitor) was captured and exported from the FLIPR. Test agent effect was calculated as % inhibition using the following formula: % inhibition=((RFU Test Agent−Plate Average RFU REF INHIB)/(Plate Average RFU Control−Plate Average RFU REF INHIB))×100

IC50 [µM] | Structure (SMILES)
1 to 5 | CCn1nnc(C)c1CN1CCN(c2cn[nH]c(=O)c2Cl)CC1
1 to 5 | Cc1ccccc1C(O)C1CCN(c2cn[nH]c(=O)c2Cl)CC1 (stereo not shown)

Same assay, conditions: Table 10, read-out: TRPCS-FLIPR IC50

Structure (SMILES) | IC50 [µM]
O=c1[nH]ncc(N2CCc3c(c(-c4ncn[nH]4)nn3Cc3ccccc3C(F)(F)F)C2)c1Cl | 1 to 5
O=c1[nH]ncc(C2CCc3c(nnn3Cc3ccccc3C(F)(F)F)C2)c1Cl (stereo not shown) | 10 to 500
C[C@@H](c1ccc(F)cc1C(F)F)n1nc(C(N)=O)c2c1CCN(c1cn[nH]c(=O)c1Cl)C2 | 1e-05 to 1
C[C@H](c1cccnc1CC(F)F)n1nnc2c1CCN(c1cn[nH]c(=O)c1Cl)C2 | 1e-05 to 1
COC[C@H](c1ccc(F)cc1C(F)(F)F)n1cnc2c1CCN(c1cn[nH]c(=O)c1Cl)C2 | 1e-05 to 1
COC[C@@H](c1ccc(F)cc1C(F)(F)F)n1cnc2c1CCN(c1cn[nH]c(=O)c1Cl)C2 | 1 to 5
CC(C)C(=O)Nc1nn(Cc2ccccc2C(F)(F)F)c2c1CN(c1cn[nH]c(=O)c1Cl)CC2 | 1e-05 to 1
CC(=O)Nc1nn(Cc2ccccc2C(F)(F)F)c2c1CN(c1cn[nH]c(=O)c1Cl)CC2 | 1e-05 to 1
N[C@@H](c1nn(Cc2ccccc2C(F)(F)F)c2c1CN(c1cn[nH]c(=O)c1Cl)CC2)C(F)(F)F | 1 to 5
N[C@H](c1nn(Cc2ccccc2C(F)(F)F)c2c1CN(c1cn[nH]c(=O)c1Cl)CC2)C(F)(F)F | 1 to 5
NC[C@H](c1ccc(F)cc1C(F)(F)F)n1cnc2c1CCN(c1cn[nH]c(=O)c1Cl)C2 | 5 to 10
O=c1[nH]ncc(N2CCc3c(nnn3Cc3ccc(F)cc3Cl)C2)c1Cl | 1e-05 to 1
CS(=O)(=O)c1nn(Cc2ccc(F)cc2C(F)F)c2c1CN(c1cn[nH]c(=O)c1Cl)CC2 | 1e-05 to 1
CCS(=O)(=O)c1nn(Cc2ccc(F)cc2C(F)F)c2c1CN(c1cn[nH]c(=O)c1Cl)CC2 | 1 to 5
C[C@H](c1ccccc1C(F)(F)F)n1[nH]c(=O)c2c1CCN(c1cn[nH]c(=O)c1Cl)C2 | 1e-05 to 1
C[C@@H](c1ccccc1C(F)(F)F)n1[nH]c(=O)c2c1CCN(c1cn[nH]c(=O)c1Cl)C2 | 1e-05 to 1
CN(c1ncc2c(n1)CN(c1cn[nH]c(=O)c1Cl)C2)c1ccccc1Cl | 1e-05 to 1
Nc1nn(Cc2ccccc2C(F)(F)F)c2c1CN(c1cn[nH]c(=O)c1Cl)CC2 | 1 to 5
C[C@H](c1ccc(F)cc1C(F)(F)F)n1[nH]c(=O)c2c1CCN(c1cn[nH]c(=O)c1Cl)C2 | 1e-05 to 1
C[C@@H](c1ccc(F)cc1C(F)(F)F)n1[nH]c(=O)c2c1CCN(c1cn[nH]c(=O)c1Cl)C2 | 1e-05 to 1
Nc1nn(Cc2ccc(F)cc2C(F)(F)F)c2c1CN(c1cn[nH]c(=O)c1Cl)CC2 | 1e-05 to 1
CS(=O)(=O)c1nn(Cc2ccc(F)cc2C(F)(F)F)c2c1CN(c1cn[nH]c(=O)c1Cl)CC2 | 1e-05 to 1

Next, values leading:

IC50 [µM] | Structure (SMILES)
1e-05 to 1 | C[C@@H]1CCC[C@H]1Cn1nnc2c1CCN(c1cn[nH]c(=O)c1Cl)C2
1e-05 to 1 | C[C@H]1CCC[C@H]1Cn1nnc2c1CCN(c1cn[nH]c(=O)c1Cl)C2
1e-05 to 1 | C[C@H](c1ccc(F)cc1C(F)F)n1nnc2c1CCN(c1cn[nH]c(=O)c1Cl)C2
1e-05 to 1 | C[C@H](c1cc(F)ccc1C(F)(F)F)n1nnc2c1CCN(c1cn[nH]c(=O)c1Cl)C2
1e-05 to 1 | C[C@@H](c1ccc(Cl)cc1C(F)(F)F)n1nnc2c1CCN(c1cn[nH]c(=O)c1Cl)C2
1e-05 to 1 | N#Cc1nn(Cc2ccccc2C(F)(F)F)c2c1CN(c1cn[nH]c(=O)c1Cl)CC2
1e-05 to 1 | C[C@H](c1ccc(Cl)cc1C(F)(F)F)n1nnc2c1CCN(c1cn[nH]c(=O)c1Cl)C2
1e-05 to 1 | O=c1[nH]ncc(N2CCc3c(c(CN4CCOCC4)nn3Cc3ccccc3C(F)F)C2)c1Cl
1e-05 to 1 | O=C1COCCN1Cc1nn(Cc2ccccc2C(F)F)c2c1CN(c1cn[nH]c(=O)c1Cl)CC2
1e-05 to 1 | O=c1[nH]ncc(N2Cc3cnc(Oc4ccccc4C(F)(F)F)nc3C2)c1Cl
1e-05 to 1 | CNC(=O)c1nn([C@@H](C)c2ccccc2C(F)F)c2c1CN(c1cn[nH]c(=O)c1Cl)CC2
1e-05 to 1 | C[C@@H](c1ccccc1C(F)(F)F)n1nc(C(N)=O)c2c1CCN(c1cn[nH]c(=O)c1Cl)C2
1e-05 to 1 | COC[C@@H](c1ccccc1C(F)(F)F)n1cnc2c1CCN(c1cn[nH]c(=O)c1Cl)C2
